Test results from patent US12011444B2, “N-substituted indole derivatives as PGE2 receptor modulators” (Idorsia Pharmaceuticals Ltd, priority 2015, dated 2024).

Columns and labels:
EP4 = EP4 (Homo sapiens (Human), UniProt P35408); test: hEP4 cAMP assay (BT549 breast cancer cells, HTRF cAMP); assay type: cell-based; settings: antagonistic activity; mean values where measured multiple times
Protocol: Plate is pre-incubated 45 minutes at room temperature. Subsequently, 2.5 microliters of PGE2 (final conc. 6 nM) are transferred into the assay plate. Plate is incubated 30 minutes at room temperature.

EP2 = EP2 (Homo sapiens (Human), UniProt P43116);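 also: antagonism of PGE2-stimulated cAMP accumulation in SF295 human glioblastoma cells with endogenous EP2, cAMP read by HTRF, expressed relative to DMSO control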
EP2, sequence (P43116 whole entry): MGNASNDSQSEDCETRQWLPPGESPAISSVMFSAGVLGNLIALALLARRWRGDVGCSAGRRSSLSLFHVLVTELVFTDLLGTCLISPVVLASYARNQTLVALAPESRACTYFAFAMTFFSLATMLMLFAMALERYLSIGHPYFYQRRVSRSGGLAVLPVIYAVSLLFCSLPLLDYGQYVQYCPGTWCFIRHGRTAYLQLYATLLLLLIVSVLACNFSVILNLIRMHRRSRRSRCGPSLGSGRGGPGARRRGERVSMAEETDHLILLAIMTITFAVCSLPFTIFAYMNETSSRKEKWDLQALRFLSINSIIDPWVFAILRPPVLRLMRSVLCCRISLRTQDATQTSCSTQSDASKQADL
Text: Human tumor cell lines expressing endogenously either EP4 or EP2 are used and cAMP accumulation in cells upon PGE2 stimulation is monitored. SF295 glioblastoma cells express high endogenous EP2 and no EP4, whereas BT549 breast cancer cells, express high endogenous EP4 levels and very low EP2 levels.
As a detection method for cAMP the HTRF (homogeneous time resolved fluorescence) Cisbio kit (HTRF cAMP dynamic 2 kit 20′000 tests Cisbio Cat. #62AM4PEC) was used, which is based on a competitive immunoassay using a Cryptate-labeled anti-cAMP antibody and d2-labeled cAMP. Native cAMP produced by cells or unlabeled cAMP (for the standard curve) compete with exogenously added d2-labeled cAMP (acceptor) for binding to monoclonal anti-cAMP-Eu3+Cryptate (donor). A FRET signal (Fluorescence Resonance Energy Transfer) is obtained only if the labeled anti-cAMP antibody binds the d2 labelled cAMP, thus the specific signal (i.e. energy transfer) is inversely proportional to the concentration of cAMP in the standard or sample.
The SF295 cells (NCI/No. 0503170) are detached from culture dishes with a cell dissociation buffer (Invitrogen, 13151-014), and collected in growing medium (GM: RPM11640 (Invitrogen 21875)/10% FCS, 1% Penicilin/streptomycin). Cells are counted washed and resuspended in assay buffer (AB; HBSS, 20 mM HEPES, 0.2% BSA; 2 mM IBMX). 4,000 cells in 5 μl of AB are seeded per well of a small volume 384 well plate (black with flat bottom, Greiner 784076).
PGE2 (Cayman 14010, stock solution: 75 μM in DMSO) is used as agonist at 75 nM final concentration, corresponding to EC80.
Two point five microliters of diluted compounds are transferred into the assay plate. Plate is pre-incubated 45 minutes at room temperature. Subsequently, 2.5 microliters of PGE2 (final conc. 75 nM) are transferred into the assay plate. Plate is incubated 30 minutes at room temperature. Five μl of each donor (anti-cAMP cryptate) and acceptor (cAMP-d2) are added and the plate is incubated another hour at room temperature in the dark and then read using a BMG LABTECH PHERAstar reader (Excitation: 337 nm, Emission: 620 and 665 nm).
The obtained Delta F (fluorescence) values (665 nm/620 nM) are converted into % cAMP values using the measurements of the cAMP calibrator provided in the kit. For each compound concentration the percentage of cAMP compared to DMSO control value as average±STDEV (each concentration is measured in duplicate) is calculated.
IC50 values and curves are generated with XLfit software (IDBS) using Dose-Response One Site model 203. When compounds were measured multiple times, mean values are given.

EP4, sequence (P35408 whole entry): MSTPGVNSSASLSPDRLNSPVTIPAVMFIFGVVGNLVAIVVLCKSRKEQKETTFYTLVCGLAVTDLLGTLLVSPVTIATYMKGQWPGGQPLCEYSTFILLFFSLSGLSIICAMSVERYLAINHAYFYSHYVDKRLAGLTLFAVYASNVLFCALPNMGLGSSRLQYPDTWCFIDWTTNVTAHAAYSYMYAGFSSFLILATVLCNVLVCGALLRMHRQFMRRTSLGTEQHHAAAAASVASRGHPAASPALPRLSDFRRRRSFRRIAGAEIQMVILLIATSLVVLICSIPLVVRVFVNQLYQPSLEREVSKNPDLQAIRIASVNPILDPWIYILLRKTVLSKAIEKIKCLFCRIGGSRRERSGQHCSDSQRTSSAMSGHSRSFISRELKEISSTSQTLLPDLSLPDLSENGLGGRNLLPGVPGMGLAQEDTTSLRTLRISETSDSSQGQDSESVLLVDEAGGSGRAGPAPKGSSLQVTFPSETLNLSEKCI

| Structure (SMILES) | IC50 (EP4) [nM] | IC50 (EP2) [nM] |
| --- | --- | --- |
| CCOc1cc(-c2cc(NCCn3c(C)cc4c(C)c(F)cc(F)c43)ncn2)ccc1C(=O)O [compound 430] | 88 | 9 |
| CCOc1cc(-c2cc(NCCn3c(C)cc4c(C)cc(F)c(F)c43)ncn2)ccc1C(=O)O [compound 431] | 191 | 51 |
| CCOc1cc(-c2cc(NCCn3c(C)cc4c(C)cc(F)cc43)ncn2)cc(Cl)c1C(=O)O [compound 432] | 117 | 21 |
| CCOc1cc(-c2cc(NCCn3c(C)cc4c(C)ccc(F)c43)ncn2)cc(Cl)c1C(=O)O [compound 433] | 108 | 61 |
| CCOc1cc(-c2cc(NCCn3c(C)cc4c(C)ccc(F)c43)ncn2)cc(F)c1C(=O)O [compound 435] | 159 | 13 |
| CCOc1cc(-c2cc(NCCn3c(C)cc4cc(C)cc(F)c43)ncn2)cc(F)c1C(=O)O [compound 436] | 787 | 46 |
| CCc1cc(-c2cc(NCCn3c(C)cc4c(OC)ccc(F)c43)ncn2)cc(F)c1C(=O)O [compound 437] | 201 | 15 |
| CCc1cc(-c2cc(NCCn3c(C)cc4c(OC)cc(F)cc43)ncn2)cc(Cl)c1C(=O)O [compound 438] | 106 | 64 |
| CCCOc1cc(-c2cc(NCCn3c(C)cc4c(C)cc(F)cc43)ncn2)ccc1C(=O)O [compound 439] | 272 | 19 |
| CCOc1cc(-c2cc(NCCn3c(C)cc4c(C)cc(F)cc43)nc(C)n2)ccc1C(=O)O [compound 440] | 905 | 57 |
| CCCOc1cc(-c2cc(NCCn3c(C)cc4c(C)ccc(F)c43)ncn2)ccc1C(=O)O [compound 441] | 113 | 11 |
| CCCc1cc(-c2cc(NCCn3c(C)cc4c(OC)ccc(Cl)c43)ncn2)ccc1C(=O)O [compound 442] | 234 | 12 |
| CCCc1cc(-c2cc(NCCn3c(C)cc4cc(OC)cc(F)c43)ncn2)ccc1C(=O)O [compound 443] | 487 | 175 |
| CCCc1cc(-c2cc(NCCn3c(C)cc4c(OC)cccc43)ncn2)cc(Cl)c1C(=O)O [compound 444] | 94 | 7 |
| CCCc1cc(-c2cc(NCCn3c(C)cc4c(OC)cccc43)ncn2)cc(F)c1C(=O)O [compound 445] | 235 | 5 |
| COc1ccc(F)c2c1cc(C)n2CCNc1cc(-c2cc(C(F)(F)F)c(C(=O)O)s2)ncn1 [compound 446] | 8 | 16 |
| COc1cc(F)cc2c1cc(C)n2CCNc1cc(-c2cc(C(F)(F)F)c(C(=O)O)s2)ncn1 [compound 447] | 27 | 28 |
| COc1c(F)cc(Cl)c2c1cc(C)n2CCNc1cc(-c2ccc(C(=O)O)c(SC)c2)ncn1 [compound 448] | 508 | 46 |
| CCOc1cc(-c2cc(NCCn3c(C)cc4c(F)c(F)cc(F)c43)ncn2)ccc1C(=O)O [compound 449] | 242 | 4 |
| CCOc1cc(-c2cc(NCCn3c(C)cc4c(Cl)ccc(F)c43)ncn2)cc(Cl)c1C(=O)O [compound 450] | 117 | 9 |
| CCNc1cc(-c2cc(NCCn3c(C)cc4c(C#N)ccc(F)c43)ncn2)ccc1C(=O)O [compound 451] | 240 | 2 |
| Cc1ccc(Cl)c2c1cc(C)n2CCNc1cc(-c2ccc(C(=O)O)c(SC3CCC3)c2)ncn1 [compound 452, 4-{6-[2-(7-Chloro-2,4-dimethyl-indol-1-yl)-ethylamino]-pyrimidin-4-yl}-2-cyclobutylsulfanyl-benzoic acid] | 468 | 34 |

The next lines start with the values.

| IC50 (EP4) [nM] | IC50 (EP2) [nM] | Structure (SMILES) |
| --- | --- | --- |
| 904 | 31 | Cc1cc2c(Cl)ccc(Cl)c2n1CCNc1cc(-c2ccc(C(=O)O)c(SC3CCC3)c2)ncn1 [compound 453, 2-Cyclobutylsulfanyl-4-{6-[2-(4,7-dichloro-2-methyl-indol-1-yl)-ethylamino]-pyrimidin-4-yl}-benzoic acid] |
| 445 | 14 | CCOc1cc(-c2cc(NCCn3c(C)cc4c5c(cc(Cl)c43)OCO5)ncn2)ccc1C(=O)O [compound 454, 4-{6-[2-(5-Chloro-7-methyl-[1,3]dioxolo[4,5-e]indol-6-yl)-ethylamino]-pyrimidin-4-yl}-2-ethoxy-benzoic acid] |
| 154 | 74 | COc1ccc(F)c2c1cc(C)n2CCNc1cc(-c2ccc(-c3nnc(C)o3)c(F)c2)ncn1 [compound 455] |
| 944 | 233 | Cc1ccc(F)c2c1cc(C)n2CCNc1cc(-c2ccc(-c3n[nH]cc3C(=O)O)cc2)ncn1 [compound 456] |
| 480 | 888 | COc1ccc(F)c2c1cc(C)n2CCNc1cc(-c2ccc(Cn3cccn3)c(F)c2)ncn1 [compound 457] |
| 74 | 25 | COc1ccc(F)c2c1cc(C)n2CCNc1cc(-c2ccc(-c3nc(N)sc3C)cc2)ncn1 [compound 458, {6-[4-(2-Amino-5-methyl-thiazol-4-yl)-phenyl]-pyrimidin-4-yl}-[2-(7-fluoro-4-methoxy-2-methyl-indol-1-yl)-ethyl]-amine] |
| 739 | 62 | COc1ccc(F)c2c1cc(C)n2CCNc1cc(-c2ccc(-n3nc(C)cc3C)cc2)ncn1 [compound 459] |
| 146 | 4 | CCNc1cc(-c2cc(NCCn3c(C)cc4c5c(cc(Cl)c43)OCO5)ncn2)ccc1C(=O)O [compound 460, 4-{6-[2-(5-Chloro-7-methyl-[1,3]dioxolo[4,5-e]indol-6-yl)-ethylamino]-pyrimidin-4-yl}-2-ethylamino-benzoic acid] |
| 842 | 61 | COc1cccc2c1cc(C)n2CCNc1cc(-c2ccc3c(c2)CN(CC(C)C)C3=O)ncn1 [compound 462] |
| 741 | 252 | CCOc1cc(-c2cc(NCCn3c(C)cc4c(OC)cccc43)ncn2)ccc1CNC1CC1 [compound 463] |
| 459 | 15 | Cc1ccc(F)c2c1cc(C)n2CCNc1cc(-c2ccc(C(=O)O)c(N3CCCC3)c2)ncn1 [compound 464, 4-{6-[2-(7-Fluoro-2,4-dimethyl-indol-1-yl)-ethylamino]-pyrimidin-4-yl}-2-pyrrolidin-1-yl-benzoic acid] |
| 229 | 33 | CCCN1Cc2cc(-c3cc(NCCn4c(C)cc5c(OC)ccc(F)c54)ncn3)ccc2C1=O [compound 466, 5-{6-[2-(7-Fluoro-4-methoxy-2-methyl-indol-1-yl)-ethylamino]-pyrimidin-4-yl}-2-propyl-2,3-dihydro-isoindol-1-one] |
| 994 | 387 | Cc1ccc(F)c2c1cc(C)n2CCNc1cc(-c2ccc3c(c2)CN(CC(C)C)C3=O)ncn1 [compound 467] |
| 667 | 68 | COc1ccc(F)c2c1cc(C)n2CCNc1cc(-c2ccc(N3CCCS3(=O)=O)cc2)ncn1 [compound 469] |
| 735 | 63 | COc1ccc(F)c2c1cc(C)n2CCNc1cc(-c2ccc(C(=O)O)c3c2ccn3C)ncn1 [compound 470] |
| 29 | 2 | CNc1nnc(-c2ccc(-c3cc(NCCn4c(C)cc5c(OC)ccc(F)c54)ncn3)cc2)s1 [compound 471, [2-(7-Fluoro-4-methoxy-2-methyl-indol-1-yl)-ethyl]-{6-[4-(5-methylamino-[1,3,4]thiadiazol-2-yl)-phenyl]-pyrimidin-4-yl}-amine] |
